From ChEMBL document CHEMBL1149476, “Structure-activity relationship study of 9-aminoacridine compounds in scrapie-infected neuroblastoma cells” (Bioorg Med Chem Lett, 2006)

Assays:
HEK293 = assay: Cytotoxicity against HEK293 cells relative to control; format: functional; details: Homo sapiens, read-out: LD50 (the source's name)
[1] = Therapeutic index, LD50 for ScN2a cells/EC50 for PrPSc accumulation in ScN2a cells; format: cell-based; details: mouse, read-out: Ratio LD50/EC50
ScN2a [2] = assay: Cytotoxicity against mouse ScN2a cell line relative to control; format: functional; details: read-out: LD50 (the source's name)
HepG2 = assay: Cytotoxicity against HepG2 cells relative to control; format: functional; details: Homo sapiens, read-out: LD50 (the source's name)
ScN2a [3] = assay: Inhibition of PrPSc accumulation in mouse ScN2a cell line relative to control; format: functional, cell-based

Compound | CC50 (HEK293) [µM] | selectivity ratio [1] | CC50 (ScN2a [2]) [µM] | CC50 (HepG2) [µM] | EC50 (ScN2a [3]) [nM]
CCCN(CCC)CCCNc1c2ccc(OC)cc2nc2c(C)cccc12 | 0.7 | 1.3 | 1.4 | 0.7 | 1000
CCCN(CC)CCCNc1c2ccc(OC)cc2nc2ccc(C(F)(F)F)cc12 | 14.6 | 9.8 | 7.6 | 16.5 | 800
CCCN(CC)CCCNc1c2ccc(OC)cc2nc2ccc(Cl)cc12 | 4.4 | 13.6 | 8.5 | 6.9 | 600
CCCN(CCC)CCCNc1c2ccc(OC)cc2nc2ccc(C(F)(F)F)cc12 | 16.4 | 28.6 | 11.7 | 18.1 | 400
CCCN(CCCNc1c2ccc(OC)cc2nc2c(C)cccc12)CC(C)C | 1.4 | 1.3 | 1.3 | 0.7 | 1000
CCN(CCCNc1c2ccc(OC)cc2nc2ccc(C(F)(F)F)cc12)Cc1ccccc1O | 23.1 | 2.6 | 13 | > 25 | 3900
CCCN(CCC)CCCNc1c2ccc(OC)cc2nc2ccc(Cl)cc12 | 10.7 | 15.8 | 6 | 13.8 | 400
CCCN(CCCNc1c2ccc(OC)cc2nc2ccc(C(F)(F)F)cc12)Cc1ccccc1 | 22.4 | 2.6 | 18.3 | > 25 | 7100
CCCN(CC)CCCNc1c2ccc(OC)cc2nc2c(C)c(F)ccc12 | 0.8 |  | 0.6 | 0.7 | 
CCCN(CCC)CCCNc1c2ccc(Cl)cc2nc2ccc(OC)cc12 |  | 10.9 | 6.4 |  | 600
CCN(CC)CCCC(C)Nc1c2ccc(OC)cc2nc2ccc(Cl)cc12 (stereo unspecified) |  | 23.3 | 17.4 |  | 700
CCN(CCCNc1c2ccc(OC)cc2nc2c(C)c(F)ccc12)CC(C)C | 0.7 |  | 0.6 | 0.6 | 
CCN(CC)CCCC(C)Nc1c2ccc(Cl)cc2nc2ccc(OC)cc12 (stereo unspecified) [QUINACRINE] | 7.6 |  | 9.6 | 7.9 | 500
